Laboratory results reported in the CheMixHub ionic liquid set.

Assay: xn = mol fraction of the nth substance listed

CCCCOC(C)=O + CCCC[n+]1ccn(C)c1.O=S(=O)([N-]S(=O)(=O)C(F)(F)F)C(F)(F)F
Details	electrical conductivity, x1 = 0.8928 [S/m]	electrical conductivity, x1 = 0.9456 [S/m]	viscosity, x1 = 0.313 [mPa·s]	viscosity, x1 = 0.8928 [mPa·s]	viscosity, x1 = 0.9456 [mPa·s]
298.15 K, 100 kPa	0.373	0.163	–	1.47	1.092
318.15 K, 100.7 kPa	–	–	10	–	–

II + CCCCCCCCCCCC[n+]1ccn(C)c1.[I-]
Details	electrical conductivity [S/m]
298 K, 101.3 kPa, x2 = 0.2	2.02

[Br-].[Li+] + CCCC[n+]1ccn(C)c1.N#C[S-] + CN1CCCC1=O
298.15 K, 101 kPa
Details	viscosity [mPa·s]
x2 = 0, x1 = 0.02626	2.359
x2 = 0, x1 = 0.05114	3.124
x2 = 0, x1 = 0.07535	4.344

CCCCCCCC[n+]1cccc(C)c1.F[B-](F)(F)F + O
298.15 K, 101 kPa
Details	electrical conductivity [S/m]
x1 = 4.685e-05	0.024
x1 = 0.0001279	0.063
x1 = 0.000272	0.127
x1 = 0.0003045	0.142
x1 = 0.0004197	0.19
x1 = 0.0005619	0.248
x1 = 0.0007023	0.308
x1 = 0.0007922	0.33
x1 = 0.0008948	0.377
x1 = 0.0009955	0.402
x1 = 0.00103	0.408
x1 = 0.001107	0.419
x1 = 0.001265	0.42
x1 = 0.00128	0.42
x1 = 0.001371	0.421
x1 = 0.001459	0.421
x1 = 0.001608	0.422
x1 = 0.00177	0.422
x1 = 0.001919	0.422
x1 = 0.002066	0.423
x1 = 0.002642	0.425

[Br-].[Li+] + CCCCCC[n+]1ccn(C)c1.N#C[S-] + CN1CCCC1=O
298.15 K, 101 kPa
Details	viscosity [mPa·s]
x2 = 0, x1 = 0.02735	2.37
x2 = 0, x1 = 0.05202	3.192
x2 = 0, x1 = 0.07626	4.329

CCCCCCCCCCCCCC[P+](CCCCCC)(CCCCCC)CCCCCC.N#C[N-]C#N + COCCOCCOCCOCCOC
viscosity [mPa·s], 100 kPa
Details	278.15 K	283.15 K	288.15 K	293.15 K	298.15 K	303.15 K	308.15 K	313.15 K	318.15 K	323.15 K
x2 = 0	1750	1210	842	603	442	331	253	196	155	124
x2 = 0.099	1130	794	566	413	308	234	182	143	115	93
x2 = 0.203	708	508	370	275	209	162	128	103	83	69
x2 = 0.299	479	348	258	195	151	119	96	78	64	54
x2 = 0.501	160	122	95	75	61	–	–	–	–	–
x2 = 0.652	73	57	–	–	–	–	–	–	–	–

CCCCCCCCCCCCCC[P+](CCCCCC)(CCCCCC)CCCCCC.N#C[N-]C#N + CCCCCCCCCCCC
101 kPa
Details	viscosity [mPa·s]
303.15 K, x1 = 1	328
308.15 K, x1 = 0.5534	90
313.15 K, x1 = 0.736	112
323.15 K, x1 = 0.5534	47.4
323.15 K, x1 = 0.736	72.7
323.15 K, x1 = 1	123
328.15 K, x1 = 0.5534	39.2
328.15 K, x1 = 0.736	60
343.15 K, x1 = 0.5534	24.2
353.15 K, x1 = 1	41

CCCC[P+](CCCC)(CCCC)CCCC.[Br-] + OCC(O)CO + O
viscosity [mPa·s], 101.3 kPa
Details	x1 = 0.03663, x2 = 0.07337	x1 = 0.06194, x2 = 0.1241	x1 = 0.09824, x2 = 0.1968	x1 = 0.1305, x2 = 0.2615	x1 = 0.1725, x2 = 0.3455	x1 = 0.1845, x2 = 0.3695	x1 = 0.2344, x2 = 0.4696	x1 = 0.2594, x2 = 0.5196	x1 = 0.3007, x2 = 0.6023	x1 = 0.333, x2 = 0.667
293.15 K	9.46	24.1	60.1	99	156	170	249	300	393	468
298.15 K	7.51	18.5	45.8	72.1	109	120	176	212	276	329
303.15 K	6.25	15	35.7	55	79.9	90.9	130	154	198	235
308.15 K	5.21	12	28.3	42.6	62.8	67.8	96.5	118	145	172
313.15 K	4.15	9.9	22.1	32.4	47	49.3	66.5	88.4	99	116
318.15 K	3.74	8.49	18	26.4	38.4	41.4	57.6	67.5	83.2	97.1
323.15 K	3.26	7.02	14.5	21	29	31.2	42.5	50.4	57.9	68.4

CC[n+]1ccn(C)c1.O=C([O-])C(F)(F)C(F)(F)C(F)(F)C(F)(F)F + O
101 kPa
Details	viscosity [mPa·s]
298.15 K, x1 = 0.02217	2.59
298.15 K, x1 = 0.1009	10.41
298.15 K, x1 = 0.2367	20.95
298.15 K, x1 = 0.4266	36.3
308.15 K, x1 = 0.03108	2.57
308.15 K, x1 = 0.04277	3.44
308.15 K, x1 = 0.08573	6
308.15 K, x1 = 0.1458	9.48
308.15 K, x1 = 0.2011	12.32
308.15 K, x1 = 0.2621	15.23
308.15 K, x1 = 0.3007	17.04
318.15 K, x1 = 0.02217	1.616
318.15 K, x1 = 0.1458	6.88
318.15 K, x1 = 0.1625	7.47

O=S(=O)([O-])C(F)(F)F.[Li+] + CC[n+]1ccn(C)c1.O=S(=O)([O-])C(F)(F)F
electrical conductivity [S/m], 101 kPa
Details	x1 = 0.007746	x1 = 0.01537	x2 = 0.9697	x2 = 0.9746
288.15 K	0.625	0.568	–	0.535
298.15 K	0.904	0.837	0.775	0.792
333.15 K	2.31	2.14	2.02	2.05

CCCCCCCC[n+]1ccc2ccccc2c1.O=S(=O)([N-]S(=O)(=O)C(F)(F)F)C(F)(F)F + CCCCO
101 kPa
Details	viscosity [mPa·s]
298.15 K, x2 = 0.3134	122.9
298.15 K, x2 = 0.5032	55.19
308.15 K, x2 = 0.3134	71.3
308.15 K, x2 = 0.6915	15.21
318.15 K, x2 = 0.7937	6.33
328.15 K, x2 = 0.1708	45.14
338.15 K, x2 = 0.3134	21.01
338.15 K, x2 = 0.6915	5.91
338.15 K, x2 = 0.7937	3.66

CCc1n(S(=O)(=O)O)cc[n+]1S(=O)(=O)O.O=C([O-])C(F)(F)F + CC#N
101 kPa
Details	electrical conductivity [S/m]
278.15 K, x1 = 0.02551	1.22
283.15 K, x1 = 0.02551	1.21
288.15 K, x1 = 0.02551	1.2
293.15 K, x1 = 0.02551	1.11
298.15 K, x1 = 0.0052	0.323
298.15 K, x1 = 0.0104	0.517
298.15 K, x1 = 0.0155	0.736
298.15 K, x1 = 0.0205	0.989
298.15 K, x1 = 0.0255	1.11
298.15 K, x1 = 0.02551	1.11
303.15 K, x1 = 0.02551	0.823
308.15 K, x1 = 0.02551	0.824
313.15 K, x1 = 0.02551	0.816
318.15 K, x1 = 0.02551	0.767
323.15 K, x1 = 0.02551	0.755
328.15 K, x1 = 0.02551	0.689
333.15 K, x1 = 0.02551	0.652

CCc1n(S(=O)(=O)O)cc[n+]1S(=O)(=O)O.O=C([O-])C(F)(F)F + CO
electrical conductivity [S/m], 101 kPa
Details	283.15 K	293.15 K	298.15 K	313.15 K
x1 = 0.0052	–	–	1.51	–
x1 = 0.0255	–	–	3.08	–
x1 = 0.02551	3.57	3.28	3.08	2.7

CC[S+](CC)CCOCCOCC[S+](CC)CC.N#C[N-]C#N.N#C[N-]C#N + CC[n+]1ccn(C)c1.N#C[N-]C#N + O=S(=O)([N-]S(=O)(=O)C(F)(F)F)C(F)(F)F.[Li+]
100 kPa, x1 = 0.2666, x2 = 0.6449
Details	electrical conductivity [S/m]
298 K	0.501
303 K	0.604
313 K	0.841
323 K	1.13
333 K	1.44
343 K	1.72

COCC[n+]1ccn(C)c1.C[C@@H](O)[C@H](N)C(=O)[O-] + O
100 kPa
Details	viscosity [mPa·s]
303.15 K, x1 = 0.5348	557
303.15 K, x1 = 0.6571	581
308.15 K, x1 = 0.3313	297
318.15 K, x1 = 0.5348	163.8
323.15 K, x1 = 0.4476	114.9
323.15 K, x1 = 0.5348	120.9
323.15 K, x1 = 0.6571	126.6

[Br-].[Li+] + CCCCCCCCn1cc[n+](C)c1.N#C[S-] + CN1CCCC1=O
298.15 K, 101 kPa
Details	viscosity [mPa·s]
x2 = 0, x1 = 0.02595	2.385
x2 = 0, x1 = 0.05088	3.13
x2 = 0, x1 = 0.07505	4.349
